Common to all, as to assay: biochemical
Format in all cases: biochemical

Experiment [1] addresses 363 human kinases (including Aurora A/B/C) (Homo sapiens, UniProt Q04759). The note with it: PKCtheta; for remaining activity at 0.1 µM: 100 nM; for remaining activity at 0.1 µM / remaining activity at 0.5 µM: read-out: % Enzyme Activity (relative to DMSO controls).
Text: (§1) However, the Aurora A/B selectivity ratios derived from our in vitro and in vivo data can be compared to prioritize inhibitors.
For experiment [2], the target named is T1, 363 human kinases (including Aurora A/B/C) (Homo sapiens, UniProt P36896).
T1 sequence (P36896 24-505): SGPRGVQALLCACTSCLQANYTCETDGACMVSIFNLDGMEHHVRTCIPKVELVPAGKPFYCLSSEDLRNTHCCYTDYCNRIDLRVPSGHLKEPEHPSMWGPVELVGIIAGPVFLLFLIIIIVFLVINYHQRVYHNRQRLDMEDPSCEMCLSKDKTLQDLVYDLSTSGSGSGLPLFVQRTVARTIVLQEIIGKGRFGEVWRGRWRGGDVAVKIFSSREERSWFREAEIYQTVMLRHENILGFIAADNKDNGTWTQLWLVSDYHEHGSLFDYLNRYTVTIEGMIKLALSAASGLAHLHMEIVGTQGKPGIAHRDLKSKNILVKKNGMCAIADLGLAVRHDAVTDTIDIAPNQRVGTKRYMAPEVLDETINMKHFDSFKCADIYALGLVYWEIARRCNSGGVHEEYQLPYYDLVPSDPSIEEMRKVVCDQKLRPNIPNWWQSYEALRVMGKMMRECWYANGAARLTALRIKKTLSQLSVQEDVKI
The note with it: ALK4/ACVR1B, [ATP] 50 µM; for remaining activity at 0.1 µM: 100 nM; for remaining activity at 0.1 µM / remaining activity at 0.5 µM: read-out: % Enzyme Activity (relative to DMSO controls).
Text: as §1

The target of experiment [3] is 363 human kinases (including Aurora A/B/C) (Homo sapiens, UniProt Q15303). Conditions: ERBB4/HER4, [ATP] 2.5 µM; for remaining activity at 0.1 µM: 100 nM; for remaining activity at 0.1 µM / remaining activity at 0.5 µM: read-out: % Enzyme Activity (relative to DMSO controls).
Text: as §1
Experiment [4] has as its target T2, 363 human kinases (including Aurora A/B/C) (Homo sapiens, UniProt Q7L7X3).
T2 sequence (Q7L7X3 1-1001): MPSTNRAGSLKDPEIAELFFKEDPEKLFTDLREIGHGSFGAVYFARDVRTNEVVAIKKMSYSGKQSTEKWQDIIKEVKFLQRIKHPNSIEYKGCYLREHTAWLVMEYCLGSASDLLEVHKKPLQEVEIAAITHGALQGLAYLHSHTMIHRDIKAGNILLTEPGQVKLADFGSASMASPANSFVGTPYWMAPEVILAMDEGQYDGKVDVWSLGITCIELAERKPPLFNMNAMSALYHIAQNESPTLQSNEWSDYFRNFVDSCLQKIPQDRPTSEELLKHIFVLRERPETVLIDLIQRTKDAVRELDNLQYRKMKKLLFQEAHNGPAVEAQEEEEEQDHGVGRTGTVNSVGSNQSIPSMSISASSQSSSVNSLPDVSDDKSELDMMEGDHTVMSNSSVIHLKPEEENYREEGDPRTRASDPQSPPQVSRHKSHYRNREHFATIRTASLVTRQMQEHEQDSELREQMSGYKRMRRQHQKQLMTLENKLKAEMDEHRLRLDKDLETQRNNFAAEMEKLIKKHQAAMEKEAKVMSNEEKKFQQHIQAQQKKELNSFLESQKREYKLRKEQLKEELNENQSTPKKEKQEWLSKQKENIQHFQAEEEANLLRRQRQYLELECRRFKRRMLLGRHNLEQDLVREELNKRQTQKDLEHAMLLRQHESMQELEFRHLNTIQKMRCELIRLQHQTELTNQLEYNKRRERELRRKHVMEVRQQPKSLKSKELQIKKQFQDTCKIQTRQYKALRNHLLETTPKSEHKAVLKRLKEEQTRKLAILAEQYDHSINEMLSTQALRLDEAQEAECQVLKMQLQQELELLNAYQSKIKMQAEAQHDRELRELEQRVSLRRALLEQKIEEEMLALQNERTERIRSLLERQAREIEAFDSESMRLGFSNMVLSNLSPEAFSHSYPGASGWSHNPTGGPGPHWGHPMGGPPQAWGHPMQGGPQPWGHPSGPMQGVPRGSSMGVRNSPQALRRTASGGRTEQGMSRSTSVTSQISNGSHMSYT
Conditions: TAOK1; for remaining activity at 0.1 µM: 100 nM; for remaining activity at 0.1 µM / remaining activity at 0.5 µM: read-out: % Enzyme Activity (relative to DMSO controls).
Text: as §1

For experiment [5], the target named is T3, 363 human kinases (including Aurora A/B/C) (Homo sapiens, UniProt Q13188).
T3 sequence (Q13188 1-491): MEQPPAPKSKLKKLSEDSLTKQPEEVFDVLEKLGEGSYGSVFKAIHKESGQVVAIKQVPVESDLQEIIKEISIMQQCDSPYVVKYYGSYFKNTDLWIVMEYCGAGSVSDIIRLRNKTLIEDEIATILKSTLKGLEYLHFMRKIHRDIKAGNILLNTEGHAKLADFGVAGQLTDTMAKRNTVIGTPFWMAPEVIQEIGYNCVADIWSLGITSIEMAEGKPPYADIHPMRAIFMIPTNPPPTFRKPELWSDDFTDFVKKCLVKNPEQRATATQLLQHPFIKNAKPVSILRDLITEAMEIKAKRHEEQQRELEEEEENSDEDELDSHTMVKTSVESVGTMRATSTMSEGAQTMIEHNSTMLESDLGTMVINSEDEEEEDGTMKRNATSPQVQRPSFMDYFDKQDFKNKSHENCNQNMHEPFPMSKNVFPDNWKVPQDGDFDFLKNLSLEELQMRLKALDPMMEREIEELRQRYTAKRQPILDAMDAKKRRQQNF
Conditions: MST2/STK3; for remaining activity at 0.1 µM: 100 nM; for remaining activity at 0.1 µM / remaining activity at 0.5 µM: read-out: % Enzyme Activity (relative to DMSO controls).
Text: as §1

The target of experiment [6] is 363 human kinases (including Aurora A/B/C) (Homo sapiens, UniProt P29597). The note with it: TYK2; for remaining activity at 0.1 µM: 100 nM; for remaining activity at 0.1 µM / remaining activity at 0.5 µM: read-out: % Enzyme Activity (relative to DMSO controls).
Text: as §1
In experiment [7] the target is T4, 363 human kinases (including Aurora A/B/C) (Homo sapiens, UniProt Q96PN8).
T4 sequence (Q96PN8 1-268): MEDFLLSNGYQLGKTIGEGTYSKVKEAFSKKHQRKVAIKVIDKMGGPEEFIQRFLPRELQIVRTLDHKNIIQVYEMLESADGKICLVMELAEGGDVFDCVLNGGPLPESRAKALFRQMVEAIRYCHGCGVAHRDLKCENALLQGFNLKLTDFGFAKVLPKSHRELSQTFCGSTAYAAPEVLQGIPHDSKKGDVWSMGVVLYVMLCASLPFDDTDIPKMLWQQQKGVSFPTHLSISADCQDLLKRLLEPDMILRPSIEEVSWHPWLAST
The note with it: TSSK3/STK22C; for remaining activity at 0.1 µM: 100 nM; for remaining activity at 0.1 µM / remaining activity at 0.5 µM: read-out: % Enzyme Activity (relative to DMSO controls).
Text: as §1

Experiment [8] has as its target 363 human kinases (including Aurora A/B/C) (Homo sapiens, UniProt P51957). The note with it: NEK4; for remaining activity at 0.1 µM: 100 nM; for remaining activity at 0.1 µM / remaining activity at 0.5 µM: read-out: % Enzyme Activity (relative to DMSO controls).
Text: as §1

The record followed here is article PMC4685510, “A Cell Biologist’s Field Guide to Aurora Kinase Inhibitors” (Frontiers in Oncology, 2015).

Sequence of 363 human kinases (including Aurora A/B/C) (Homo sapiens, UniProt Q04759) (Q04759 whole entry): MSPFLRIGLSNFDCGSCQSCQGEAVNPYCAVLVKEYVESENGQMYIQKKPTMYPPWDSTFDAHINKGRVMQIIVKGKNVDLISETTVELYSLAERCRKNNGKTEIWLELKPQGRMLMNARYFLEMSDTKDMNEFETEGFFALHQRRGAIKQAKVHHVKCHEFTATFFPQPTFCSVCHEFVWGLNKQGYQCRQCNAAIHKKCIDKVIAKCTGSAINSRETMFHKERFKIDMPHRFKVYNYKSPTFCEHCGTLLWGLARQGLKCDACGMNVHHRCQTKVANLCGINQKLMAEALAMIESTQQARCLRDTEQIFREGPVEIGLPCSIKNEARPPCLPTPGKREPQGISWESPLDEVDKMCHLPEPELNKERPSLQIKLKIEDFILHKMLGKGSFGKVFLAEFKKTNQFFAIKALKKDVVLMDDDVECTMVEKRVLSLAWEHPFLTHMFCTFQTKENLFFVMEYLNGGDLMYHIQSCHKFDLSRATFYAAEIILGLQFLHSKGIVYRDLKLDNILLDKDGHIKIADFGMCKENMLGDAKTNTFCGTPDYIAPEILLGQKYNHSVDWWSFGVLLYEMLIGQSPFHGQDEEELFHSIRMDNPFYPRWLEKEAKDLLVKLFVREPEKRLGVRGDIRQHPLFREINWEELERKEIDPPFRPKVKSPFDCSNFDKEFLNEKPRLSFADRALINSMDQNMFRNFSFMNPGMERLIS
Sequence of 363 human kinases (including Aurora A/B/C) (Homo sapiens, UniProt P29597) (P29597 whole entry): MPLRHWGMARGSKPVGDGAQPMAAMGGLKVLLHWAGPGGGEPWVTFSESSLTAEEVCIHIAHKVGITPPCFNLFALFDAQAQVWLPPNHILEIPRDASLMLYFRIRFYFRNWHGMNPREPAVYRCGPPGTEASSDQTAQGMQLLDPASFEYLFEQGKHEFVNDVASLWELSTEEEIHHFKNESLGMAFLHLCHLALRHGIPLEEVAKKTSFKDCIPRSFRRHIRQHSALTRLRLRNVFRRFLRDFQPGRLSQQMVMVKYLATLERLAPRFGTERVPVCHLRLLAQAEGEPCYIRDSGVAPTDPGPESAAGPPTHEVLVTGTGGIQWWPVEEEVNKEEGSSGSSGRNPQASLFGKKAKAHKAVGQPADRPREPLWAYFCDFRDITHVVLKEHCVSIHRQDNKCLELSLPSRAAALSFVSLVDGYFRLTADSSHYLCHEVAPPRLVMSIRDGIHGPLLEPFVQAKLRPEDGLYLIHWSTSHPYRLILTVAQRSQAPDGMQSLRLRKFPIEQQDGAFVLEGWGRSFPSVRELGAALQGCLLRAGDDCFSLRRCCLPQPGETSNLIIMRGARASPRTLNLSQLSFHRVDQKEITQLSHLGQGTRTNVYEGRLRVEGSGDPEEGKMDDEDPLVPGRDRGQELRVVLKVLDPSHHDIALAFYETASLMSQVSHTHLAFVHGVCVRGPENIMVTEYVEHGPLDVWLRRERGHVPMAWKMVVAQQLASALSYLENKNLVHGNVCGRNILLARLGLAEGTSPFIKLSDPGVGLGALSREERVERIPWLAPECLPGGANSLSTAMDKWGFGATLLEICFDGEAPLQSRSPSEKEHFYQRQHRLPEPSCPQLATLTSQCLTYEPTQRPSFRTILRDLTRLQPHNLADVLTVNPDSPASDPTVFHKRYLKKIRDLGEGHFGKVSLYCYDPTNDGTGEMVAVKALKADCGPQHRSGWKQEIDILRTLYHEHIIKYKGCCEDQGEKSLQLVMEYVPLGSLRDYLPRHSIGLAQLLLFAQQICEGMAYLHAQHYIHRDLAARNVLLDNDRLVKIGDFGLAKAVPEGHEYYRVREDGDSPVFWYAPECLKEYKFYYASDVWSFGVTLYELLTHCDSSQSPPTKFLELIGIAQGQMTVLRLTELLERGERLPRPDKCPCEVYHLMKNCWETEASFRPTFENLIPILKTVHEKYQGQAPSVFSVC
Sequence of 363 human kinases (including Aurora A/B/C) (Homo sapiens, UniProt P51957) (P51957 whole entry): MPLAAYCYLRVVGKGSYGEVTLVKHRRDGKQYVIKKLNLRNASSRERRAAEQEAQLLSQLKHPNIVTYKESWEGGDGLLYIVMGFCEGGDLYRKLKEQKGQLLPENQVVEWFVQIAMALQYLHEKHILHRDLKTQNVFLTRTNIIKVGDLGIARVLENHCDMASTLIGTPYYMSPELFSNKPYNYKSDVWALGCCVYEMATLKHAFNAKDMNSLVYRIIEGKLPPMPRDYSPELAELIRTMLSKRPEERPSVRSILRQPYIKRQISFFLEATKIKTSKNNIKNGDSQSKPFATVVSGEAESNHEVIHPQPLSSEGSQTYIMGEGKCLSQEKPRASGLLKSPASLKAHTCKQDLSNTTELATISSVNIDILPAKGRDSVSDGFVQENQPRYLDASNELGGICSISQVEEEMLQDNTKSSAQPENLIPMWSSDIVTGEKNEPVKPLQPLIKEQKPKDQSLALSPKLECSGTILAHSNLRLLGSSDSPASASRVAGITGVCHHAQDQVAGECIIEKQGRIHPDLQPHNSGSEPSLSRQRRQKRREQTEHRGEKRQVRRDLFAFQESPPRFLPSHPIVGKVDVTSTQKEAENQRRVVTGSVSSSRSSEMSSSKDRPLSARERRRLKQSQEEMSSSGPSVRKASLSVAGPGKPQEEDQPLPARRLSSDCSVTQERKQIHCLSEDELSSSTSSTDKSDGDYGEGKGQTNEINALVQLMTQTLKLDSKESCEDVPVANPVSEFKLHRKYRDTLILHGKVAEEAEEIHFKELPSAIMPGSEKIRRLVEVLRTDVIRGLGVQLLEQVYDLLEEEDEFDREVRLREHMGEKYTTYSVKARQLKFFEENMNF
Sequence of 363 human kinases (including Aurora A/B/C) (Homo sapiens, UniProt Q15303) (Q15303 26-1308): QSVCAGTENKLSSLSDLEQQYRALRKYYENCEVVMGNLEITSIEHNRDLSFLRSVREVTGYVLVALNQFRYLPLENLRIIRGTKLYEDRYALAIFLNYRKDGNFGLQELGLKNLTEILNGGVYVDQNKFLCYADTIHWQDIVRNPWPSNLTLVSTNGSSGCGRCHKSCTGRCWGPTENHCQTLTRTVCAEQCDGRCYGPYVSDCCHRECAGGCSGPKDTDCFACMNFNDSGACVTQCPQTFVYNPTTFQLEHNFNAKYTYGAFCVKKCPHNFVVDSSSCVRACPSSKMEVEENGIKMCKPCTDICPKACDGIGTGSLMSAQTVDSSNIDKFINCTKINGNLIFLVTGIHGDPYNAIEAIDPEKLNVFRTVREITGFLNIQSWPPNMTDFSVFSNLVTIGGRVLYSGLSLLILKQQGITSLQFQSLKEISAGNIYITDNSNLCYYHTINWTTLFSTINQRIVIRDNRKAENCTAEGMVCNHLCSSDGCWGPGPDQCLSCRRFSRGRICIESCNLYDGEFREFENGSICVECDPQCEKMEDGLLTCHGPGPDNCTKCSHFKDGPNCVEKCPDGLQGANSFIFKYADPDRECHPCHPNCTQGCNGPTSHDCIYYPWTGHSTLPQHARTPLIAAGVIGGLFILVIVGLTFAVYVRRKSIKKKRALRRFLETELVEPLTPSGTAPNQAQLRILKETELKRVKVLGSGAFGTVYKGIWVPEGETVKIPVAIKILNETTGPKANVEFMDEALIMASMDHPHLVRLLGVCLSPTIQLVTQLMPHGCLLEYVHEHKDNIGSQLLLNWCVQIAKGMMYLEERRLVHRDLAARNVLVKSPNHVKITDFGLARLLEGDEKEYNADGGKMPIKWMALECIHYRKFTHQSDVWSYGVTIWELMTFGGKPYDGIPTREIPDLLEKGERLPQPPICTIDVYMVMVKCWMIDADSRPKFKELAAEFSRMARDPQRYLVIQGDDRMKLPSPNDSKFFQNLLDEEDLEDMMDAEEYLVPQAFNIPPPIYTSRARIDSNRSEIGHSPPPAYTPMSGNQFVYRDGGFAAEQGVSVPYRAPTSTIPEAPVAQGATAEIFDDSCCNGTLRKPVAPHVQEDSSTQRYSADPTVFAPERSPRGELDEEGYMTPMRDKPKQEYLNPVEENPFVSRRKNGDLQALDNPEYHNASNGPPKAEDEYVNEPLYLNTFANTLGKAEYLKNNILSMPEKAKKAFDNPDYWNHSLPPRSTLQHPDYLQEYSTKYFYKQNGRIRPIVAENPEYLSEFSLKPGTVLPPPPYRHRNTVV

With `CCn1cc(-c2ccnc3[nH]c(-c4cccc(CN(C)C)c4)cc23)c(-c2ccc(NC(=O)N(C)C)cc2)n1` [GSK1070916], the remaining activity at 0.1 µM turned out to be 92.7% in experiment [1]; 102% in experiment [2]; 87.3% in experiment [3]; 96% in experiment [4]; 91.8% in experiment [5]; 87% in experiment [6]. The remaining activity at 0.1 µM in experiment [7] is 83%; in experiment [8], 111%.
On to `O=C(O)[C@]1(Cc2cccc(Nc3nccs3)n2)CC[C@@H](Oc2cccc(Cl)c2F)CC1` [MK-5108], for which the remaining activity at 0.1 µM in experiment [1] is 91.8%; in experiment [2], 106%; in experiment [3], 97.1%; in experiment [4], 89.5%; in experiment [5], 87.7%; in experiment [6], 52.3%. For the same compound, the remaining activity at 0.1 µM turned out to be 101% in experiment [7] and 96.7% in experiment [8]. The remaining activity at 0.5 µM in experiment [1] (500 nM) came out at 104%; in experiment [2] (500 nM), 92.9%; in experiment [3] (500 nM), 77.7%; in experiment [4] (500 nM), 70.3%; in experiment [5] (500 nM), 48.4%; in experiment [6] (500 nM), 17%. For the same compound, the remaining activity at 0.5 µM in experiment [7] (500 nM) is 91.3%; in experiment [8] (500 nM) it was 113%.
For the compound `O=C(c1cccc(Cl)c1F)N1CCN(Cc2cccc(Nc3nccs3)n2)CC1` [MK-8745], the “% Enzyme Activity (relative to DMSO controls)” value in experiment [1] (500 nM) came out at 152.58%; in experiment [2] (500 nM), 133.43%; in experiment [3] (500 nM) it was 93.35%; in experiment [4] (500 nM) it was 88.72%; in experiment [5] (500 nM) it was 46.05%; in experiment [6] (500 nM) it was 67.55%. The figures for the “% Enzyme Activity (relative to DMSO controls)” value in experiment [7] (500 nM) and in experiment [8] (500 nM) were 94.05% and 103.20%, respectively. In addition, the remaining activity at 0.5 µM in experiment [1] (500 nM) is 157%; in experiment [2] (500 nM), 137%; in experiment [3] (500 nM), 94.9%; in experiment [4] (500 nM), 89.7%; in experiment [5] (500 nM), 46.6%; in experiment [6] (500 nM) it was 67.8%. The remaining activity at 0.5 µM in experiment [7] (500 nM) was 95.9%; in experiment [8] (500 nM) it was 107%.
